Some results are limits rather than exact numbers.

The target of this assay is wild type MLL1 four-member complex (MLL1-4C) (Homo sapiens, UniProt Q03164). Put plainly: MLL1 LC-MS assay. The format is biochemical. The settings on record: 30 nM MLL1-4C, 2.5 μM SAM, 10 μM H3K4me0; SAH production by LC-MS/MS; read-out: MLL1 LCMS. The procedure: The compounds of the present disclosure were serially and separately diluted 3-fold in DMSO to obtain a total of eight or twelve concentrations. Then the test compounds at each concentration (120 nL of each) were transferred by Mosquito into white Proxiplate plus 384-well microplate (PerkinElmer). Solutions (6 μL) of 60 nM wild type MLL1 four-member complex (MLL1-4C) and 5 μM SAM in the reaction buffer (20 mM Tris-HCl, pH8.0, 0.01% Tween 20, 1 mM DTT, 10 mM MgCl2, 0.01% BSA) were added to the wells that were then incubated with the test compound for 20 min. A 6 μL solution of 20 μM of the peptide substrate H3K4me0 (histone H3[1-21]-Biotin) in the reaction buffer was added to initiate each reaction. The final components in the reaction solution include 30 nM MLL1-4C, 2.5 μM SAM, and 10 μM H3K4me0 with varying concentration of the compounds. A positive control consisted of 30 nM MLL1-4C, 2.5 μM SAM, and 10 μM substrate in the absence of the test compound, and a negative control consisted of 2.5 μM SAM, and 10 μM substrate only. Each reaction was incubated at rt for 120 min, then stopped by addition of 3 μL per of quench solution (2.5% TFA with 320 nM d4-SAH). The reaction mixture was centrifuged (Eppendorf centrifuge 5810, Rotor A-4-62) for 2 min at 2000 rmp. The SAH production from the enzymatic assays were monitored by LC-MS/MS on an API 4000 triple quadrupole mass spec with TurboIon Spray (Applied Biosystem) coupled with Prominenece UFLC(Shimazu). The level of SAH production were then normalized based on the values coming from the positive and negative controls to give percent enzyme activities. The data were then fit to a dose response equation using the program Helios (Novartis) to get the IC50 values of the test compounds.
As for `COC[C@H](N)CCCOc1cccc(Cl)c1Cc1cnc2c(N)ncnn12` [Example 6, (R)-7-(2-((4-amino-5-methoxypentyl)oxy)-6-chlorobenzyl)imidazo[2,1-f][1,2,4]triazin-4-amine], the IC50 is more than 100 nM.

In the case of `COC[C@H](N)CCCOc1ccccc1Cc1cnc2c(N)ncnn12` [Example 7, (R)-7-(2-((4-amino-5-methoxypentyl)oxy)benzyl)imidazo[2,1-f][1,2,4]triazin-4-amine], the IC50 was more than 100 nM.

As to `COC[C@H](N)CCCOc1cccc(Br)c1Cc1cnn2c(N)ncnc12` [Example 10, (R)-8-(2-((4-amino-5-methoxypentyl)oxy)-6-bromobenzyl)pyrazolo[1,5-a][1,3,5]triazin-4-amine], the IC50 was more than 100 nM.

Turning to `COC[C@H](N)CCCOc1ccccc1Cc1cnn2c(N)ncnc12` [Example 12, (R)-8-(2-((4-amino-5-methoxypentyl)oxy)benzyl)pyrazolo[1,5-a][1,3,5]triazin-4-amine], the IC50 was more than 100 nM.

Turning to `COC[C@H](N)CCCOc1cc(Cl)ccc1Cc1cnn2c(N)ncnc12` [Example 13, (R)-8-(2-((4-amino-5-methoxypentyl)oxy)-4-chlorobenzyl)pyrazolo[1,5-a][1,3,5]triazin-4-amine], the IC50 is more than 100 nM.

Turning to `COC[C@H](N)CCCOc1c(Cl)cccc1Cc1cnn2c(N)ncnc12` [Example 14, (R)-8-(2-((4-amino-5-methoxypentyl)oxy)-3-chlorobenzyl)pyrazolo[1,5-a][1,3,5]triazin-4-amine], the IC50 was more than 100 nM.

Consider `Nc1ncnc2c1ncn2Cc1c(OCC[C@H](N)C(=O)O)ccc(F)c1F` [Example 25, O-(2-((6-amino-9H-purin-9-yl)methyl)-3,4-difluorophenyl)-L-homoserine], for which the IC50 is more than 100 nM.

As for `CC(C)c1nc(N)c2ncn(Cc3c(Cl)cc(Cl)cc3OCCC[C@@H](N)C(=O)O)c2n1` [Example 26, (R)-2-amino-5-(2-((6-amino-2-isopropyl-9H-purin-9-yl)methyl)-3,5-dichlorophenoxy)pentanoic acid], the IC50 is more than 100 nM.

Turning to `Nc1ncc(Cl)c2c1ncn2Cc1c(Cl)cc(Cl)cc1OCCCC(N)C(=O)O` (stereo not shown) [Example 28, 2-amino-5-(2-((4-amino-7-chloro-1H-imidazo[4,5-c]pyridin-1-yl)methyl)-3,5-dichlorophenoxy) pentanoic acid], the IC50 was more than 100 nM.

In the case of `COC(=O)[C@H](N)CCCOc1ccc(Cl)c(Cl)c1Cn1cnc2c(N)ncnc21` [Example 33, methyl (R)-2-amino-5-(2-((6-amino-9H-purin-9-yl)methyl)-3,4-dichlorophenoxy)pentanoate], the IC50 is less than 50 nM.

Regarding `NC(=O)[C@H](N)CCCOc1cc(Cl)cc(Cl)c1Cn1cnc2c(N)ncc(Cl)c21` [Example 38, (R)-2-amino-5-(2-((4-amino-7-chloro-1H-imidazo[4,5-c]pyridin-1-yl)methyl)-3,5-dichlorophenoxy)pentanamide], the IC50 was more than 100 nM.

Turning to `CNC(=O)[C@H](N)CCCOc1ccc(Cl)c(Cl)c1Cn1cnc2c(N)ncnc21` [Example 40, (R)-2-amino-5-(2-((6-amino-9H-purin-9-yl)methyl)-3,4-dichlorophenoxy)-N-methylpentanamide], the IC50 was more than 100 nM.

For the compound `NCCCCOc1cc(Cl)cc(Cl)c1Cn1cnc2c(N)nccc21` [Example 46, 1-(2-(4-aminobutoxy)-4,6-dichlorobenzyl)-1H-imidazo[4,5-c]pyridin-4-amine], the IC50 was more than 100 nM.

The values are drawn from patent US12371434B2, “MLL1 inhibitors and anti-cancer agents” (NOVARTIS AG, priority 2020, dated 2025).
